{"source": "ChEMBL document CHEMBL1145653", "about": "“The alkaloids of Corydalis meifolia” (J Nat Prod, 1983)", "key": {"[1]": {"test_system": "Ileum", "experiment": "Spasmolytic activity against guinea pig ileum assessed as inhibition of spasmogen-induced contraction at 50 ug", "type": "functional, Cavia porcellus"}, "[2]": {"test_system": "Ileum", "experiment": "Spasmolytic activity against guinea pig ileum assessed as inhibition of spasmogen-induced contraction at 10 ug", "type": "functional, Cavia porcellus"}}}
{"smiles": "COc1cc2c(cc1OC)-c1c(C)c3ccc4c(c3c[n+]1CC2)OCO4.[Cl-]", "note": "[DEHYDROCAVIDINE]", "values": [{"measurement": "inhibition (INH)", "setting": "[1]", "result": 40, "unit": "%"}, {"measurement": "inhibition (INH)", "setting": "[2]", "result": 20, "unit": "%"}]}
{"smiles": "COc1cc2c(cc1OC)[C@@H]([C@H]1OC(=O)c3c1ccc1c3OCO1)N(C)CC2", "note": "[CORLUMINE]", "values": [{"measurement": "inhibition (INH)", "setting": "[1]", "result": 50, "unit": "%"}, {"measurement": "inhibition (INH)", "setting": "[2]", "result": 0, "unit": "%"}]}
{"smiles": "COc1cc2c(cc1OC)[C@]1([C@H](O)c3ccc4c(c3[C@@H]1O)OCO4)N(C)CC2", "note": "[YEMHUSOMINE]", "values": [{"measurement": "inhibition (INH)", "setting": "[1]", "result": 52, "unit": "%"}, {"measurement": "inhibition (INH)", "setting": "[2]", "result": 17, "unit": "%"}]}
{"smiles": "COc1cc2c(cc1OC)[C@H]1[C@@H](C)c3ccc4c(c3CN1CC2)OCO4", "note": "[CAVIDINE]", "values": [{"measurement": "inhibition (INH)", "setting": "[1]", "result": 100, "unit": "%"}, {"measurement": "inhibition (INH)", "setting": "[2]", "result": 84, "unit": "%"}]}
